The target in the experiment is human BACE1 (Homo sapiens, UniProt P56817). The experiment in a line: Fluorescent kinetic assay, evaluation of BACE1 binding affinity of test compounds. Conditions: 10 nM human BACE1, 25 μM substrate WABC-6, pH 4.5, room temperature. The format is biochemical. The method, then: Concentration is determined by absorbance at 354 nm using an extinction coefficient of 18172 M^-1 cm^-1, the concentration of stock substrate is corrected, and the substrate stock stored in small aliquots in -80° C. […] Determination of Stock Enzyme Concentration: the stock concentration of each enzyme is determined by absorbance at 280 nm using an of 64150 M^-1 cm^-1 for hBACE1 and MuBACE1, 62870 M^-1 cm^-1 for hBACE2 in 6 M Guanidinium Hydrochloride (from Research Organics, Cat. # 5134G-2), pH 6. […] Biochem. 182, 319-326). Dilution and mixing steps: total reaction volume: 100 μL 2× inhibitor dilutions in buffer A (66.7 mM Na-Acetate, pH 4.5, 0.0667% CHAPS) were prepared, 4× enzyme dilution in buffer A (66.7 mM Na-Acetate, pH 4.5, 0.0667% CHAPS) were prepared, 100 μM substrate dilution in 1×PBS was prepared, and 50 μL 2× Inhibitor, 25 μL 100 μM substrate are added to each well of 96-well plate (from DYNEX Technologies, VWR #: 11311-046), immediately followed by 25 μL 4× enzyme (added to the inhibitor and substrate mix), and the fluorescence readings are initiated.

Read-outs that look alike come from different tables or passages of the source.

human BACE1, sequence (P56817 46-501): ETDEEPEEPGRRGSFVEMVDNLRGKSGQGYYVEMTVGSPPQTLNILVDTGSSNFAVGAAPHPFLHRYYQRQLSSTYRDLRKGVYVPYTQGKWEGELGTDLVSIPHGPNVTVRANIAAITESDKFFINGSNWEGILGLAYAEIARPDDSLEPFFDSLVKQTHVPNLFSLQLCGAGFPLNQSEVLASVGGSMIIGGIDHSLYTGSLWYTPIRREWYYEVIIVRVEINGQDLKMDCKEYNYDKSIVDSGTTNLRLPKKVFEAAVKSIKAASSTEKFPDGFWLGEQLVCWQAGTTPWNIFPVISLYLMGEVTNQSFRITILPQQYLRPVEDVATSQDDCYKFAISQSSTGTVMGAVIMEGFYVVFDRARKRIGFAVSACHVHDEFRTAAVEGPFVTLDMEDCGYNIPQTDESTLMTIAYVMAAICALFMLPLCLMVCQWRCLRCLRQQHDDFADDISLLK

As for “2-Amino-5-[3-chloro-4-(difluoromethoxy)phenyl]-3-methyl-5-phenyl-3,5-dihydro-4H-imidazol-4-one [Example 16]”, the 50% inhibitory concentration (IC50) – broadly, the concentration that inhibits the measured activity by half – (read-out: BACE1 IC50) fell in the range of 0.11 to 1 µM. Same read-out and setting: the value for “2-Amino-5-[4-(difluoromethoxy)-3-(fluoromethyl)phenyl]-3-methyl-5-phenyl-3,5-dihydro-4H-imidazol-4-one [Example 14]” was 0.11 to 1 µM; that for `CCCC#Cc1cc([C@]2(c3ccc(OC(F)F)c(C)c3)N=C(N)N(C)C2=O)ccc1F` (single isomer, unassigned) [Example 73] was 0.11 to 1 µM; that for `CN1C(=O)[C@](c2ccccc2)(c2ccc(OC(F)F)c(CCF)c2)N=C1N` (single isomer, unassigned) [Example 75] was less than 0.1 µM. Still for that read-out and setting: as for `CN1C(=O)[C@@](c2ccccc2)(c2ccc(OC(F)F)c(CCF)c2)N=C1N` (single isomer, unassigned) [Example 76], the figure is greater than 1 µM; as for `CCCc1cc([C@]2(c3ccccc3)N=C(N)N(C)C2=O)ccc1OC(F)F` (single isomer, unassigned) [Example 79], less than 0.1 µM; as for `CCCc1cc([C@]2(c3ccccc3)N=C(N)N(C)C2=O)ccc1OC(F)F` (single isomer, unassigned) [Example 80], greater than 1 µM. The same measure, in the same setting: the value for `CCC#Cc1cc([C@@]2(c3ccc(OC(F)F)c(C)c3)N=C(N)N(C)C2=O)ccc1F` (single isomer, unassigned) [Example 83] was less than 0.1 µM; that for `CCC#Cc1cc([C@]2(c3ccc(OC(F)F)c(C)c3)N=C(N)N(C)C2=O)ccc1F` (single isomer, unassigned) [Example 84] was 0.11 to 1 µM; that for `CN1C(=O)[C@](c2ccc(F)c(OCCCF)c2)(c2ccc(OC(F)F)c(C3CC3)c2)N=C1N` (single isomer, unassigned) [Example 86] was less than 0.1 µM. Regarding `CN1C(=O)[C@@](c2ccc(F)c(OCCCF)c2)(c2ccc(OC(F)F)c(C3CC3)c2)N=C1N` (single isomer, unassigned) [Example 87], under “read-out: BACE1 IC50”, the IC50 was greater than 1 µM. On the same count and under the same terms, the value for `CN1C(=O)[C@](c2ccc(F)c(C#CC3CC3)c2)(c2ccc(OC(F)F)c(CCF)c2)N=C1N` (single isomer, unassigned) [Example 93] was less than 0.1 µM; that for `CN1C(=O)[C@@](c2ccc(F)c(C#CC3CC3)c2)(c2ccc(OC(F)F)c(CCF)c2)N=C1N` (single isomer, unassigned) [Example 94] was 0.11 to 1 µM; that for `CN1C(=O)[C@](c2cccc(Br)c2)(c2ccc(OC(F)F)c(C3CC3)c2)N=C1N` (single isomer, unassigned) [Example 165] was less than 0.1 µM.

On to `CN1C(=O)[C@@](c2cccc(Br)c2)(c2ccc(OC(F)F)c(C3CC3)c2)N=C1N` (single isomer, unassigned) [Example 166], for which the IC50 (read-out: BACE1 IC50) is greater than 1 µM. The same measure, in the same setting: as for `CC#Cc1cccc([C@@]2(c3ccc(OC(F)F)c(C4CC4)c3)N=C(N)N(C)C2=O)c1` (single isomer, unassigned) [Example 169], the figure is less than 0.1 µM; as for `CC#Cc1cccc([C@]2(c3ccc(OC(F)F)c(C4CC4)c3)N=C(N)N(C)C2=O)c1` (single isomer, unassigned) [Example 170], greater than 1 µM; as for `CC(C)C#Cc1cccc([C@@]2(c3ccc(OC(F)F)c(C4CC4)c3)N=C(N)N(C)C2=O)c1` (single isomer, unassigned) [Example 174], less than 0.1 µM. Still for that read-out and setting: the value for `CC(C)C#Cc1cccc([C@]2(c3ccc(OC(F)F)c(C4CC4)c3)N=C(N)N(C)C2=O)c1` (single isomer, unassigned) [Example 175] was greater than 1 µM; that for `CN1C(=O)[C@](c2cccc(C#CC3CC3)c2)(c2ccc(OC(F)F)c(C3CC3)c2)N=C1N` (single isomer, unassigned) [Example 177] was less than 0.1 µM.

As for `CN1C(=O)[C@@](c2cccc(C#CC3CC3)c2)(c2ccc(OC(F)F)c(C3CC3)c2)N=C1N` (single isomer, unassigned) [Example 178], the IC50 (read-out: BACE1 IC50) was in the range of 0.11 to 1 µM. As for `COCC#Cc1cccc([C@@]2(c3ccc(OC(F)F)c(C4CC4)c3)N=C(N)N(C)C2=O)c1` (single isomer, unassigned) [Example 181], for the setting “read-out: BACE1 IC50”, the IC50 was less than 0.1 µM. For the compound `COCC#Cc1cccc([C@]2(c3ccc(OC(F)F)c(C4CC4)c3)N=C(N)N(C)C2=O)c1` (single isomer, unassigned) [Example 182], the IC50 (read-out: BACE1 IC50) was 0.11 to 1 µM.

With `COCCC#Cc1cccc([C@]2(c3ccc(OC(F)F)c(C4CC4)c3)N=C(N)N(C)C2=O)c1` (single isomer, unassigned) [Example 184], the IC50 (read-out: BACE1 IC50) lay within 0.11 to 1 µM. On the same count and under the same terms, the value for `COCCC#Cc1cccc([C@@]2(c3ccc(OC(F)F)c(C4CC4)c3)N=C(N)N(C)C2=O)c1` (single isomer, unassigned) [Example 185] was less than 0.1 µM; that for `CN1C(=O)[C@@](c2cccc(C#CCCCO)c2)(c2ccc(OC(F)F)c(C3CC3)c2)N=C1N` (single isomer, unassigned) [Example 189] was 0.11 to 1 µM. Still for that read-out and setting: as for `CN1C(=O)[C@](c2cccc(C#CCCCO)c2)(c2ccc(OC(F)F)c(C3CC3)c2)N=C1N` (single isomer, unassigned) [Example 190], the figure is less than 0.1 µM; as for `CN1C(=O)[C@](c2cccc(C#CCCCF)c2)(c2ccc(OC(F)F)c(C3CC3)c2)N=C1N` (single isomer, unassigned) [Example 192], less than 0.1 µM; as for `CN1C(=O)[C@@](c2cccc(C#CCCCF)c2)(c2ccc(OC(F)F)c(C3CC3)c2)N=C1N` (single isomer, unassigned) [Example 193], 0.11 to 1 µM.

As for `CCCOc1cc(C2(c3ccc(OC(F)F)c(C)c3)N=C(N)N(C)C2=O)ccc1F` (stereo in doubt) [Example 116, (5S)-2-Amino-5-[4-(difluoromethoxy)-3-methylphenyl]-5-(4-fluoro-3-propoxyphenyl)-3-methyl-3,5-dihydro-4H-imidazol-4-one], for the setting “read-out: BACE1 IC50”, the IC50 was less than 0.1 µM. Still for that read-out and setting: as for `CCc1cc(C2(c3ccc(F)c(OCCCF)c3)N=C(N)N(C)C2=O)ccc1OC(F)F` (stereo in doubt) [Example 122, (5S)-2-Amino-5-[4-(difluoromethoxy)-3-ethylphenyl]-5-[4-fluoro-3-(3-fluoropropoxy)phenyl]-3-methyl-3,5-dihydro-4H-imidazol-4-one], the figure is less than 0.1 µM; as for `CC(C)c1cc(C2(c3ccccc3)N=C(N)N(C)C2=O)ccc1OC(F)F` (stereo in doubt) [Example 138, (5R)-2-Amino-5-[4-(difluoromethoxy)-3-isopropylphenyl]-3-methyl-5-phenyl-3,5-dihydro-4H-imidazol-4-one], less than 0.1 µM. On the same count and under the same terms, the value for `CC(C)c1cc(C2(c3ccccc3)N=C(N)N(C)C2=O)ccc1OC(F)F` (stereo in doubt) [Example 139, (5S)-2-Amino-5-[4-(difluoromethoxy)-3-isopropylphenyl]-3-methyl-5-phenyl-3,5-dihydro-4H-imidazol-4-one] was greater than 1 µM; that for `Cc1cc(C2(c3ccc(F)cc3)N=C(N)N(C)C2=O)ccc1OC(F)F` (centres unmarked) [Example 3, 2-Amino-4-(4-(difluoromethoxy)-3-methylphenyl)-4-(4-fluorophenyl)-1-methyl-1H-imidazol-5(4H)-one] was 0.11 to 1 µM; that for `Cc1cc([C@]2(c3ccc(F)cc3)N=C(N)N(C)C2=O)ccc1OC(F)F` [Example 4A, (5S)-2-Amino-4-(4-(difluoromethoxy)-3-methylphenyl)-4-(4-fluorophenyl)-1-methyl-1H-imidazol-5(4H)-one] was greater than 1 µM.

Take `Cc1cc([C@@]2(c3ccc(F)cc3)N=C(N)N(C)C2=O)ccc1OC(F)F` [Example 4B, (5R)-2-Amino-4-(4-(difluoromethoxy)-3-methylphenyl)-4-(4-fluorophenyl)-1-methyl-1H-imidazol-5(4H)-one]: where the note is “read-out: BACE1 IC50”, the IC50 lay in the range of 0.11 to 1 µM.

For `Cc1cc(C2(c3ccccc3)N=C(N)N(C)C2=O)cc(C)c1OC(F)F` (centres unmarked) [Example 5, 2-Amino-5-[4-(difluoromethoxy)-3,5-dimethylphenyl]-3-methyl-5-phenyl-3,5-dihydro-4H-imidazol-4-one], the IC50 (BACE1 IC50 μM) fell in the range of 0.11 to 1 µM. Still for that read-out and setting: the value for `CCc1cc(C2(c3ccccc3)N=C(N)N(C)C2=O)ccc1OC(F)F` (centres unmarked) [Example 6, 2-Amino-5-[4-(difluoromethoxy)-3-ethylphenyl]-3-methyl-5-phenyl-3,5-dihydro-4H-imidazol-4-one] was 0.11 to 1 µM; that for `CCc1cc(C2(c3ccc(F)cc3)N=C(N)N(C)C2=O)ccc1OC(F)F` (centres unmarked) [Example 7, 2-Amino-4-[4-(difluoromethoxy)-3-ethylphenyl]-4-(4-fluorophenyl)-1-methyl-1H-imidazol-5(4H)-one] was 0.11 to 1 µM; that for `CCCc1cc(C2(c3ccccc3)N=C(N)N(C)C2=O)ccc1OC(F)F` (centres unmarked) [Example 8, 2-Amino-5-[4-(difluoromethoxy)-3-propylphenyl]-3-methyl-5-phenyl-3,5-dihydro-4H-imidazol-4-one] was 0.11 to 1 µM. As for `CC(C)c1cc(C2(c3ccccc3)N=C(N)N(C)C2=O)ccc1OC(F)F` (centres unmarked) [Example 9, 2-Amino-5-[4-(difluoromethoxy)-3-isopropylphenyl]-3-methyl-5-phenyl-3,5-dihydro-4H-imidazol-4-one], the IC50 (read-out: BACE1 IC50 μM) lay in the range of 0.11 to 1 µM.

The record behind these values is patent US20090042964A1, “AMINO-5-[SUBSTITUTED-4-(DIFLUOROMETHOXY)PHENYL]-5-PHENYLIMIDAZOLONE COMPOUNDS AS BETA-SECRETASE INHIBITORS” (Wyeth, priority 2007, published 2009).
